In experiment [1] the target is T1, AKR1C3 K104D (Homo sapiens, UniProt P42330, K104D).
T1 sequence (P42330 1-323 K104D): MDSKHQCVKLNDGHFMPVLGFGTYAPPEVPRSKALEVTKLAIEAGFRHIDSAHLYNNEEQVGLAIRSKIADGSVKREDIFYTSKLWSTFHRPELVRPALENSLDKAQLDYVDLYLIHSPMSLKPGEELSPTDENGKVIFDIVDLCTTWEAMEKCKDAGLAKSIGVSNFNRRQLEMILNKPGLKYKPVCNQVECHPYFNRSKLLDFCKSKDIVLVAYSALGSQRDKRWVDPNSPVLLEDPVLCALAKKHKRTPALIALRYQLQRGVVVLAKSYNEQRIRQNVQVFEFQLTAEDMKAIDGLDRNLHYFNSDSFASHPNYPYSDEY
Briefly: Specific activity after preincubation at 37 °C with cofactor. Format: biochemical. The following applies: alone roughly 50%.

The subject of experiment [2] is AKR1C3. The following applies: cited from earlier work.
Experiment [3] concerns the target T1, AKR1C3 K104D. As to the kind of experiment: Kd for NAD. The following applies: read-out: Kd NADP+, 0.5 μM protein, pH 7.0, 25 °C, Morrison equation. The experiment is classed as binding.
Experiment [4] concerns the target T2, AKR1C3 E77G (Homo sapiens, UniProt P42330, E77G).
T2 sequence (P42330 1-323 E77G): T1 sequence (P42330 1-323 K104D) with E77G, D104K
Briefly: Kd for NAD. The experiment is classed as binding. The following applies: read-out: Kd NADP+, 0.5 μM protein, pH 7.0, 25 °C, Morrison equation.

For experiment [5], the target named is T3, AKR1C3 WT (Homo sapiens, UniProt P42330).
T3 sequence (P42330 1-323): T1 sequence (P42330 1-323 K104D) with D104K
Briefly: Kd for NAD. The experiment is classed as binding. Particulars: read-out: Kd NADP+, 0.5 μM protein, pH 7.0, 25 °C, Morrison equation.

Experiment [6] concerns the target T4, AKR1C3 H5Q (Homo sapiens, UniProt P42330, H5Q).
T4 sequence (P42330 1-323 H5Q): T1 sequence (P42330 1-323 K104D) with H5Q, D104K
Briefly: Kd for NAD. Particulars: read-out: Kd NADP+, 0.5 μM protein, pH 7.0, 25 °C, Morrison equation. The experiment is classed as binding.

Changes are numbered by the printed parent chain. Where a name gives a salt, the structure may show the parent alone.

For the molecule `NC(=O)c1ccc[n+]([C@@H]2O[C@H](COP(=O)([O-])OP(=O)(O)OC[C@H]3O[C@@H](n4cnc5c(N)ncnc54)[C@H](O)[C@@H]3O)[C@@H](O)[C@H]2O)c1` [NAD+, nicotinamide adenine dinucleotide Grade II free acid], the “K104D activity remaining (% of activity at 0 min)” value in experiment [1] (K104D preincubated at 37 °C with 2 mM NAD+, four hours) is recorded as “roughly 75%”.
In the case of `NC(=O)c1ccc[n+]([C@@H]2O[C@H](COP(=O)([O-])OP(=O)(O)OC[C@H]3O[C@@H](n4cnc5c(N)ncnc54)[C@H](OP(=O)(O)O)[C@@H]3O)[C@@H](O)[C@H]2O)c1` [NADP+, nicotinamide adenine dinucleotide phosphate oxidized disodium salt], the “binding affinity of NADP+ relative to NAD+” value in experiment [2] is recorded as about 1000 times. Also, the Kd in experiment [3] stood at 0.1 ± 0.047 µM; in experiment [4] it was 0.12 ± 0.035 µM; in experiment [5] it was 0.11 ± 0.017 µM; in experiment [6], 0.12 ± 0.033 µM. Also, in experiment [1] (K104D preincubated at 37 °C with 2 mM NADP+, over four hours), the “K104D activity remaining (% of activity at 0 min)” value is given as 100%.

The term Kd denotes the concentration at which binding is half-saturated.

(Values after publication PMC9675978 (The Journal of steroid biochemistry and molecular biology, 2022).)
